The nature of the data set: gradient 5% acetonitrile 3 min, to 50% in 2 min, to 85% in 15 min, held 3 min, 100 µL/min. Particulars: column: Zorbax Extend-C18 2.1 x 50 mm; eluents: water / acetonitrile, 0.1% formic acid. Summed up: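 A Zorbax Extend-C18 column (2.1 × 50 mm, 1.8 μm) run at 100 μL/min with water and acetonitrile, both containing 0.1% formic acid, separated mixtures of ~100 pure standards. The HPLC was coupled to a quadrupole time-of-flight mass spectrometer operated in positive and negative ionization mode, with dead and dwell volumes of 40 μL and 900 μL. Each retention time was taken from a computationally picked adduct peak that was then manually inspected.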
For the compound `CN1C(=O)c2cccnc2Sc2cc(NC(=O)c3cccc(C(F)(F)F)c3)ccc21`, the RP-LC retention time is 910 s. The same measure for `COc1ccc(OC)c(NC(=O)Nc2c(-c3ccc(C)cc3)nc3ccccn23)c1`: 698 s; for `CN1CCC=C(C(=O)N2c3ccccc3Sc3ccc(Cl)cc32)C1`: 762 s. Turning to `Cn1c(=O)n(C)c2cc(S(=O)(=O)c3ccc(F)cc3)c(NC(=O)Cc3ccc(F)cc3)cc21`, the RP-LC retention time worked out at 874 s. The same measure for `Cc1ccsc1C(=O)NCC1CCCCC(=O)N1` (centres undefined): 640 s; for `CCCc1ccc(S(=O)(=O)N2CCCC2c2nc(-c3ccc(F)cc3)no2)cc1` (centres undefined): 1270 s.

The compound `CC(NC(=O)C1(c2ccc(NS(C)(=O)=O)cc2)CCCCC1)c1ccccc1` (centres undefined) displayed an RP-LC retention time of 926 s. The result for `COc1ccc(Cl)cc1NS(=O)(=O)c1c(C)sc(C)c1-c1cc(C(F)(F)F)on1` reads 1220 s.

As for `COc1ccc(-n2c(=O)c3sccc3n(Cc3nc(-c4ccc(C)c(C)c4)no3)c2=O)cc1`, the RP-LC retention time stood at 1090 s. `O=C(Nc1ccccc1C(F)(F)F)N1CCCC1c1nc(-c2ccc(F)cc2F)no1` (centres undefined): the RP-LC retention time came out at 1030 s. The result for `O=C1Nc2ccccc2SC1C(=O)N1CCC(C(=O)N2CC=C(c3ccccc3)CC2)CC1` (centres undefined) reads 831 s; that for `CCOc1ccc(-c2nc(C3CC(=O)N(c4ccc(F)cc4)C3)no2)cc1OCC` (centres undefined), 1050 s. The same measure for `NC(=O)c1oc2ccccc2c1NC(=O)C1CCCCN1S(=O)(=O)c1cccs1` (centres undefined): 825 s. Turning to `Cc1cccc(N(C)C(=O)Cn2nc3nc(N4CCCC4)ccn3c2=O)c1`, the RP-LC retention time was found to be 678 s. Take `COc1ccc2c(c1)C1(CCN(C(=O)Nc3ccccc3OC)C1)C(=O)N2` (centres undefined): the RP-LC retention time amounted to 722 s. Turning to `Cc1ccc(NC(=O)c2sc3nc[nH]c(=O)c3c2C)c(C)c1`, the RP-LC retention time came out at 725 s. Take `Cc1ccc(NS(=O)(=O)c2cc3n(c2)CCCNC3=O)cc1`: the RP-LC retention time stood at 651 s. `CCOc1nc2ccccc2nc1N1CCCC(C(=O)Nc2ccccc2F)C1` (centres undefined): the RP-LC retention time is 1200 s. The same measure for `Fc1ccc(Cc2nc3nccc(-c4ccsc4)n3n2)cc1`: 905 s; for `CC1=C(c2ccc(C)cc2)S(=O)(=O)N=C1N1CCCN(C(=O)NC(C)(C)C)CC1`: 836 s; for `COCCCNC(=O)N1CC(n2cc(COc3ccc(F)cc3)nn2)C1`: 691 s. Regarding `CN1C(=O)CCc2cc(NS(=O)(=O)Cc3cccc(Cl)c3)ccc21`, the RP-LC retention time was found to be 751 s.

As to `O=C(Nc1ccc(N2CCN(c3ccccc3)C2=O)nc1)c1cccc(Cl)c1`, the RP-LC retention time came to 959 s.

`CCN1CCn2cc(S(=O)(=O)Nc3cccc(C(=O)OC)c3)cc2C1=O` returned an RP-LC retention time of 703 s. In the case of `CCCCn1c(CN2CCOCC2)nc2cc(NC(=O)c3cccs3)ccc21`, the RP-LC retention time was determined as 678 s.

`Cc1ccccc1-c1noc(-c2cccn(CC(=O)NCC3CCCO3)c2=O)n1` (centres undefined): the RP-LC retention time amounted to 729 s.

In turn, `O=C(c1cn2cc(Cl)ccc2n1)N1CCN(c2ccccc2Cl)CC1` yielded an RP-LC retention time of 946 s. The same measure for `COCCc1noc([C@@H]2CC(F)(F)CN2C(=O)c2ocnc2C)n1`: 689 s.

On to `CCOc1ccc(CC(=O)Nc2nc(-c3cccs3)cs2)cc1`, for which the RP-LC retention time was determined as 963 s. Turning to `COc1ccc(NC(=O)NCCC2CCN(S(=O)(=O)c3ccccc3)CC2)cc1`, the RP-LC retention time is 822 s. For the compound `CCc1ccc(CNC(=O)c2cc3n(n2)CC(C)(C(=O)NC2CCCC2)N(C)C3=O)cc1` (centres undefined), the RP-LC retention time came out at 812 s. Consider `Cc1ccc(-c2cc3c(=O)n(Cc4noc(CN5CCC(C)CC5)n4)ccn3n2)c(C)c1`, for which the RP-LC retention time came out at 742 s. In turn, `O=C([C@@H]1C[C@H](Oc2ccccc2)CN1C(=O)C1CCCC1)N1CCCC1` yielded an RP-LC retention time of 784 s. On to `Cc1cc([N+](=O)[O-])ccc1NC(=O)c1ccc(-n2cnnn2)cc1`, for which the RP-LC retention time was determined as 803 s. As to `Cc1cc(C)cc(NC(=O)C2CC(=O)N(CCc3c[nH]c4ccc(F)cc34)C2)c1` (centres undefined), the RP-LC retention time worked out at 889 s. In turn, `CCCN(CC1CCOC1)C(=O)Nc1cc(F)cc(F)c1` (centres undefined) had an RP-LC retention time of 871 s. Regarding `CCc1ccc(S(=O)(=O)c2cnc(N3CCN(c4cccc(Cl)c4)CC3)nc2N)cc1`, the RP-LC retention time was found to be 1270 s. In turn, `CCN1CCn2cc(C(=O)N3CCN(c4ccccc4Cl)CC3)nc2C1` had an RP-LC retention time of 622 s.

In turn, `O=C(Nc1cccc(F)c1)N1CC(Oc2ccc(-c3nc(-c4ccccc4)no3)cc2)C1` displayed an RP-LC retention time of 1200 s. Take `Cc1cc(C(=O)Nc2nnc(-c3ccn(C)n3)o2)c(C)o1`: the RP-LC retention time turned out to be 617 s.

In turn, `CSc1ccc(CNC(=O)C2CCCN(C(=O)Cc3cccc4ccccc34)C2)cc1` (centres undefined) had an RP-LC retention time of 951 s. The same measure for `CC(C)c1ccc(NC(=O)CC2=C3CCCCC3N(C(C)C)C2=O)cc1` (centres undefined): 1070 s; for `O=C1Nc2ccccc2/C1=C\c1cnc[nH]1`: 617 s; for `CCc1nc2ccccc2c(=O)n1Cc1noc(-c2ccc3c(c2)OCO3)n1`: 964 s. Take `Cc1ccc(Oc2ccc(NS(=O)(=O)c3ccc(F)cc3F)cc2)nn1`: the RP-LC retention time is 720 s.

In turn, `CC1CN(c2nc3ccccc3nc2SCC(=O)N2CCOCC2)CC(C)O1` (centres undefined) displayed an RP-LC retention time of 882 s. `O=C(CCc1conc1-c1ccc(F)cc1)NC1CCCCCC1` had an RP-LC retention time of 969 s. As for `Cc1ccc(-c2nc(-c3ccc4c(c3)ncn4CCN3CCOCC3)no2)c(C)c1`, the RP-LC retention time turned out to be 698 s. Take `CCc1nn2c(CNC(=O)c3ccccc3Cl)c(C)nc2s1`: the RP-LC retention time was 650 s.

Compound `O=C(NCc1ccc(-c2nc(C3CC3)no2)s1)c1ccc(F)cc1F` registered an RP-LC retention time of 956 s. On to `COc1ccccc1-c1[nH]ncc1CN1C[C@@H]2CCN(S(C)(=O)=O)C[C@]2(CF)C1`, for which the RP-LC retention time is 583 s.

Regarding `CCN(CC)c1ncc2c(n1)CCC(C(=O)NCc1ccc(F)cc1Cl)C2` (centres undefined), the RP-LC retention time stood at 731 s.

For `Cn1ncc(Cl)c1C(=O)N1CCCC1c1cccc(F)c1` (centres undefined), the RP-LC retention time turned out to be 813 s. Compound `Cc1ccc(CNC(=O)C2CCCN(S(=O)(=O)c3cc(-c4noc(C)n4)cs3)C2)o1` (centres undefined) displayed an RP-LC retention time of 864 s. The result for `COC1CCC12CCN(S(=O)(=O)c1ccc(C)c(F)c1)CC2` (centres undefined) reads 1090 s; that for `O=C(Nc1ccc2nc3n(c(=O)c2c1)CCCC3)Nc1ccc(F)cc1F`, 690 s; that for `CN(C)CCNC(=O)C1CCCN(c2ccc(=O)n(-c3cccc(Cl)c3)n2)C1` (centres undefined), 929 s. The same measure for `O=C(Nc1ccc(F)c(Cl)c1)C1CCCN(S(=O)(=O)c2c[nH]c(C(=O)N3CCCC3)c2)C1` (centres undefined): 876 s; for `Cc1ccc(-n2nc(N3CCCN(S(=O)(=O)Cc4ccccc4)CC3)ccc2=O)cc1C`: 912 s. `CCCNC(=O)c1ncn2c1C(=O)N(C1CC1)C(C)(C(=O)NCc1ccccc1Cl)C2` (centres undefined) yielded an RP-LC retention time of 722 s. In turn, `Cc1cccc(-c2nc(-c3cn(-c4ccccc4)nn3)no2)c1` returned an RP-LC retention time of 1060 s. Compound `Cc1ccc(S(=O)(=O)N2CCC3(CC2)NCCN=C3NCc2ccc(C(F)(F)F)cc2)cc1` had an RP-LC retention time of 789 s. For `Cc1ccccc1-c1nnc(COc2ccc(NC(=O)c3sccc3C)cc2)o1`, the RP-LC retention time was 1010 s. The same measure for `O=C(NCc1ccccc1)c1nc(Cn2c(=O)oc3ccc(Cl)cc32)no1`: 960 s.

As to `CN(C)CCn1nnc2cc(-c3noc(-c4ccc(C#N)cc4)n3)ccc21`, the RP-LC retention time was 643 s.

For `Cn1c(CC2CCN(C(=O)C3CC(=O)N(C4CCCCCC4)C3)C2)nc2cccnc21` (centres undefined), the RP-LC retention time turned out to be 599 s. Regarding `Cc1ccc(-n2nc(N3CCCC(C(=O)NCc4ccccc4)C3)ccc2=O)cc1Cl` (centres undefined), the RP-LC retention time turned out to be 901 s. `CCOc1ccc(S(=O)(=O)N2CCN(c3cnn4c(C)nnc4c3)CC2)cc1` came in with an RP-LC retention time of 714 s.

With `O=S(=O)(Cc1ccccc1)N1CCCCC1c1nc(-c2ccccc2)n[nH]1` (centres undefined), the RP-LC retention time was 943 s. The result for `COc1ccc(NC(=O)NC2CCN(c3ccc(F)cc3)C2=O)c(OC)c1` (centres undefined) reads 716 s; that for `CCOc1ccc(-n2c(=O)c3sccc3n(Cc3nc(-c4ccc(F)cc4)no3)c2=O)cc1`, 982 s; that for `COc1ccc(-c2nsc(SCC(=O)N3CCCc4ccccc43)n2)cc1`, 1110 s. For the compound `Cc1noc(C)c1S(=O)(=O)N1CC(N(Cc2cccnc2)CC(C)C)C1`, the RP-LC retention time was 706 s.

In the case of `CC(=O)N1CCc2cc(N3CC(C(=O)NCc4ccccc4C)CC3=O)ccc21` (centres undefined), the RP-LC retention time is 707 s. `CC(C)Oc1ccc(-c2noc(CN3N=NC4C(=O)N(c5ccc(F)c(F)c5)C(=O)C43)n2)cc1` (centres undefined) displayed an RP-LC retention time of 1110 s. Regarding `Cc1cc(C)cc(OCCNS(=O)(=O)c2ccc3c(c2)OCCO3)c1`, the RP-LC retention time is 934 s. The same measure for `Cc1nc(NCCNC(=O)c2ccc(Br)o2)cc(-n2cccn2)n1`: 673 s. The result for `Cc1nn2c(nnc3c(=O)n(CCc4c[nH]c5ccccc45)ccc32)c1-c1ccc(F)cc1` reads 954 s. `Cc1ccc(NC(=O)c2cn3c(n2)CCCC3)c(C)c1` gave an RP-LC retention time of 644 s.
